Measured values reported in paper PMC10269819, “Mitochondrial ADP/ATP Carrier 1 Is Important for the Growth of Toxoplasma Tachyzoites” (Microbiology Spectrum, 2023).

Legend:
Format in all cases: cell-based
TgAAC1 [1] = target: T1, TgAAC1 (Toxoplasma gondii, UniProt Q9BJ36); assay: competition with [α-32P]ATP uptake by intact induced E. coli cells; conditions: unlabelled competitor 2.5 μM (100-fold excess); 25 nM [α-32P]ATP; 10 min; 50 mM potassium phosphate pH 7.0; 30 °C
T1 construct: full-length cDNA (318 residues) in pET-16b, HA-tagged; expressed in membrane of intact E. coli BL21(DE3)
T1 sequence (Q9BJ36 1-318): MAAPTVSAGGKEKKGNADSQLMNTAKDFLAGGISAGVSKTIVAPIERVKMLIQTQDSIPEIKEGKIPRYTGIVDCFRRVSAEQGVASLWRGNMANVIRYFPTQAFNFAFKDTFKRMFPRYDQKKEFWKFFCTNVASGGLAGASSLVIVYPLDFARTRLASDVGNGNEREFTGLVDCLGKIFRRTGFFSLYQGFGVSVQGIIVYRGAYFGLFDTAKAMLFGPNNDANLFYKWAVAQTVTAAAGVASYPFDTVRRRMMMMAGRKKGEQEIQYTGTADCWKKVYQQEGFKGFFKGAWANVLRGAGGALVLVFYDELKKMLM

TgAAC1 [2] = target: T1, TgAAC1; assay: uptake of [α-32P]ATP by intact induced E. coli cells; conditions: labelled compound; 25 nM [α-32P]ATP; 50 mM potassium phosphate pH 7.0; 30 °C; uninduced cells as control
TgAAC1 [3] = target: T1, TgAAC1; assay: competition with [α-32P]ATP uptake by intact induced E. coli cells; conditions: unlabelled competitor 2.5 μM (100-fold excess); 25 nM [α-32P]ATP; 10 min; 50 mM potassium phosphate pH 7.0; 30 °C; remark: listed apart in the source

Nc1ncnc2c1ncn2[C@@H]1O[C@H](COP(=O)(O)OP(=O)(O)O)[C@@H](O)[C@H]1O [ADP]
% reduction of [α-32P]-ATP transport at 2.5 μM (TgAAC1 [1]): ~ approximately 90%

Nc1ncnc2c1ncn2[C@@H]1O[C@H](COP(=O)(O)OP(=O)(O)OP(=O)(O)O)[C@@H](O)[C@H]1O [ATP]
uptake of [α-32P]ATP by intact induced E. coli cells (TgAAC1 [2]): TgAAC1 could take up more ATP after induction compared to the noninduced group
% reduction of [α-32P]-ATP transport at 2.5 μM (TgAAC1 [1]): ~ approximately 90%

Nc1ccn([C@@H]2O[C@H](COP(=O)(O)OP(=O)(O)OP(=O)(O)O)[C@@H](O)[C@H]2O)c(=O)n1 [CTP]
% reduction of [α-32P]-ATP uptake at 2.5 μM (TgAAC1 [3]): 45%

Nc1ncnc2c1ncn2[C@@H]1O[C@H](COP(=O)(O)O)[C@@H](O)[C@H]1O [AMP]
% reduction of [α-32P]-ATP uptake at 2.5 μM (TgAAC1 [3]): 40%
